The source of these data is PubChem BioAssay (NCI).

Values joined by “and” are separate entries in the source; they are usually repeats but may differ in a detail not shown here. Equal values may be shown once.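 Values below derive from 48-hour exposures of cells grown in 96-well plates, with endpoints linearly interpolated between the two concentrations bracketing the appropriate inhibition level. GI50: concentration for 50% inhibition of growth. TGI is the concentration that stops growth completely.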

What all share (assay): inhibition of tumour cell growth, NCI panel, 48 h
Test [1] deals with ACHN renal.
Test [2] deals with CAKI-1 renal.
In test [3] the test system is COLO 205 colon.
Test [4] relates to DU-145 prostate.
Test [5] relates to HCT-116 colon.
Test [6] deals with NCI-H226 lung.
In test [7] the test system is OVCAR-5 ovarian.
The subject of test [8] is SW-620 colon.
Test [9] has as its system HOP-92 NSCLC.
Test [10] deals with SK-MEL-2 melanoma.

As for `CCOC(=O)c1c(Cl)c2c(n1Cc1ccccc1)-c1oncc1CCC2`, the GI50 in test [1] was 5.89 µM; in test [2], 3.51 µM; in [3], 3.53 µM; in [4] it was greater than 100 µM; in [5], 4.02 µM; in test [6], greater than 100 µM. Besides, the results for the GI50 in test [7] and in [8] were greater than 100 µM and 3.81 µM, respectively. The TGI in test [1], in test [2], in test [3], in test [4], in test [5] and in test [6] was greater than 100 µM throughout. Moreover, the TGI in test [7] and in test [8] was greater than 100 µM in each case.
`CC(C)(C)OC(=O)CC(NC(=O)OCc1ccccc1)NC(=O)OC(C)(C)C` (stereo not drawn): the GI50 is 51.5 µg/mL in test [1]; 50.6 µg/mL in test [3]; 72.3 µg/mL in test [4]; 52.1 µg/mL in [5]; 69.2 µg/mL in test [9]; 48.1 µg/mL in test [10].
With `O=c1c(-c2ccccc2)c(SCCCN2CCCCC2)n(-c2ccccc2)c(=S)n1-c1ccccc1`, the TGI in test [1] amounted to 34.4 µM; in test [2] it was 38.7 µM; in [3] it was 36.8 µM; in test [4], 34.1 µM; in [9], 30.1 µM; in test [6] it was 30.4 µM. Besides, the TGI is greater than 100 µM in [7], 30.3 µM in test [10] and 41.9 µM in test [8].
In the case of `C=CCN1C(=O)NC(=O)/C(=C/c2c3ccccc3cc3ccccc23)C1=O`, the TGI in [2] was found to be 40.3 µM; in test [3], 35.3 µM; in test [5], 30.8 µM; in test [9], 54.4 µM; in test [6], 45.9 µM; in [7] it was 44.4 µM. For the same molecule, the TGI in test [10] was 38.7 µM; in [8] it was greater than 100 µM.
Turning to `O=c1c2ccccc2nc2n1CCc1c-2[nH]c2ccccc12`, the TGI in [2] came to 47.9 µM; in [3], 37.9 µM; in [4] it was 33.5 µM; in test [5] it was 31.3 µM; in test [9] it was 31 µM; in test [7] it was 31.2 µM. The same molecule showed a TGI in [8] of 52.9 µM.
Consider `C/C=C(/CCC1NCCc2c1[nH]c1ccccc21)[Si](C)(C)C` (stereo not drawn), for which the TGI in test [1] was > 100 µM and 21.5 µM; in [2], > 100 µM and 18.3 µM; in test [3], 3.92 µM; in test [9], 90.1 µM and 11.9 µM; in [6] it was > 100 µM and 31.4 µM; in test [7], > 100 µM and 14.6 µM. Moreover, the GI50 in [9] is 27 µM and 2.9 µM.
With `NCCCCNOCCCN`, the TGI in test [1], in [2], in [3], in [4], in [5] and in [9] was greater than 100 µM in each case. For the same molecule, the TGI in test [6], in [7], in test [10] and in test [8] was greater than 100 µM each time.
With `O=c1[nH]c2ccccc2c2oc3ccccc3c12`, the TGI in [1], in test [2], in test [3], in test [4], in [9] and in test [6] was greater than 100 µM each time. The same molecule gave a TGI in [8] greater than 100 µM.
Consider `O=[N+]([O-])c1ccc(N/N=C\c2cc(Br)ccc2O)nc1`, for which the GI50 in test [1] was 0.461 µM; in test [2], 0.459 µM; in [3], 3.3 µM; in test [4] it was 0.912 µM; in test [5] it was 0.451 µM; in test [9], 1.62 µM. Further, the GI50 in test [6] was 3.11 µM; in test [7], 5.51 µM; in test [10] it was 4.88 µM; in [8], 0.934 µM. Further, the TGI in [1] was 2.56 µM; in test [2] it was 2.35 µM; in [3] it was greater than 100 µM; in [4] it was 5.77 µM; in test [5], 2.44 µM; in test [9] it was 6.77 µM. Besides, the TGI in test [6], in test [7], in [10] and in test [8] was greater than 100 µM in each case.
Turning to `NC(Cc1cc(I)c(Oc2ccc(O)c(I)c2)c(I)c1)C(=O)O` (stereo not drawn), the TGI in test [1], in test [2], in test [3], in test [4], in test [5] and in test [9] was greater than 100 µM each time. The TGI in test [6] was greater than 100 µM; in test [7] it was greater than 100 µM; in test [10], 41 µM; in test [8], greater than 100 µM.
On to `O=S1(=O)C(=C(c2ccccc2)c2ccccc2)S(=O)(=O)c2ccccc21`, for which the TGI is greater than 100 µM in test [2]; greater than 100 µM in test [3]; greater than 100 µM in test [5]; 50.8 µM in test [9]; greater than 100 µM in [6]; greater than 100 µM in test [7]. Further, the TGI in [10] and in [8] was greater than 100 µM each time.
